From patent US20230391817A1, “5ALPHA-HYDROXY-6BETA-[2-(1-H-IMIDAZOL-4-YL)-ETHYLAMINO]-CHOLESTAN-3BETA-OL ANALOGUES AND PHARMACEUTICAL COMPOSITIONS COMPRISING SAME FOR USE IN THE TREATMENT OF CANCER” (priority 2020, published 2023) come the findings set out here.

Structures are written as SMILES. Where two headings read alike, the source gives them in different places.

The test system of series [1] is BT-474 human mammary tumor cells. Put plainly: Cell viability of BT-474 cells, LDH. In kind it is cell-based. To be noted: BT-474, LDH, 48 h; for Mean LogIC50 (±SEM): log of IC50 in μM; for IC50: Homo sapiens. The protocol: For the second method, the percentage of viability is determined by assaying the activity of the enzyme LDH (lactate dehydrogenase) in cell supernatants using the non radioactive cytotoxicity assay kit (Promega). LDH is an enzyme released in the supernatant of dead cells. The higher the LDH activity in the supernatant, the greater the cell death. In this enzyme assay, the LDH released converts a violet tetrazolium salt to a red colored formazan, absorbing at 490 nm. The intensity of the red color is proportional to the number of dead cells. After 48 h of treatment, the supernatants are transferred to a new 96-well plate and incubated for 30 minutes in the presence of substrate mix at room temperature. The reaction is stopped with stop solution reagent and the absorbance is determined at 490 nm. The percentage of cell death is determined here using a 100% maximum LDH activity control (made from untreated cells incubated in the presence of lysis solution for 45 minutes at 37° C. just prior to addition of the substrate mix), and the cell viability in each well is then deduced from this percentage. The IC50 is then determined as explained in the preceding paragraph.
Cell viability tests were also performed on BT-474 human mammary tumor cells (characterized as triple positive HER2+, ER+, PR+). The BT-474 cells were in a cell culture medium identical to the previous example and seeded in 24-well plates at 70 000 cells per well for cell viability determination using trypan blue, or in 96-well plates at 13 000 cells per well for cell viability determination using the MTT or LDH assay. After 96 hours (h) of culture under normal conditions, i.e. in an incubator at 37° C. with […], BT-474 cells were treated for 48 h with DX101, DX103, DX105, DX111, DX123 and DX127 at 100 nM, 1 μM, 2.5 μM and 10 μM. A control is also performed using the protocol described previously without treatment with DX101, DX103, DX105, DX111, DX123 and DX127.
After a 10-minute trypsin digestion at 37° C., the cell survival was also quantified by means of a trypan blue test with automatic counting using the Biorad TC20 machine (TC20™ Automated Cell Counter). The trypan blue test is based on the integrity of cell membranes, which is disrupted in the dead cells. Trypan blue stains dead cells blue. The Biorad TC20 cell counter counts the proportion of blue and non-blue cells, and reports the percentage of cells. The percentage of viability is then determined in each well relative to the untreated cells and the IC50 is determined as explained in the preceding example. Also, the percentage viability of the BT-474 cells was determined using the MTT and LDH assay, performed as described in the preceding example.

Series [2] is described as follows: Pharmacokinetics and bioavailability, oral and I.V., in rats (Example 28). The settings on record: rat. In kind it is in vivo. The protocol:
Plasma sampling at 0 (without injection), 15, 30 min, 1 h, 4 h, 8 h, 24 h, 48 h, 72 h

Series [3] addresses T1, Cholesterol Epoxide Hydrolase (ChEH) (Homo sapiens, UniProt Q15125+Q9UBM7).
T1 construct: endogenous in cells; host or cells: MCF-7
Put plainly: Cholesterol Epoxide Hydrolase (ChEH) activity in MCF-7 cells, [14C]5,6α-EC metabolism by TLC. In kind it is cell-based. To be noted: 1 μM, 24 h, [14C]5,6α-EC 0.6 μM. From the text:
The compounds 5,6α-epoxycholesterol (5,6α-EC) and 5,6p-epoxycholesterol (5,6p-EC) are oxysterols involved in the anticancer pharmacology of tamoxifen, a widely used antitumor drug. Both are metabolized to cholestane-3β,5α,6β-triol (CT) by the enzyme cholesterol-5,6-epoxide hydrolase (ChEH), and CT is metabolized by the enzyme HSD11B2 (11β-hydroxysteroid dehydrogenase 2) to 6-oxocholestane-3β,5α-diol (OCDO), a tumor-promoting oncosterone.
MCF-7 cells are in a cell culture medium identical to that of Example 5 and are seeded in 6-well plates at 150 000 cells per well with three wells per treatment condition. […] Tamoxifen is used as a positive control for 3α-fluoro-5α-hydroxy-6β-[2-(1H-imidazol-4-yl)ethylamino]cholestane and 5α-hydroxy-6β-[2-(1H-imidazol-4-yl)ethylamino]cholestan-3β-ol (1 μM for all molecules).
After 24 hours of treatment, the media are collected and lipid extracts are prepared from the cell pellets by extraction with 100 μL of chloroform, 400 μL of methanol, and 300 μL of water.
The lipid extracts are analyzed by thin layer chromatography (TLC) using ethyl acetate (EtOAc) as eluent. The analysis is performed with a plate reader and then by autoradiography.

Series [4] relates to Neuro2a (murine neuroblastoma) cells. The experiment in a line: Cytotoxicity on Neuro2a cells, trypan blue test. In kind it is cell-based. To be noted: 48 h. The protocol:
For this experiment, a cell culture medium was prepared. The culture medium consisted of Dulbecco's Modified Eagle Medium (DMEM, sold by Westburg under the reference LO BE12-604F), comprising 4.5 g/L glucose with L-glutamine, to which 10% fetal calf serum (FCS) is added. Neuro2a (murine neuroblastoma) cells are introduced into this culture medium.
24-well dishes were seeded with 10 000 Neuro2a cells per well. After 72 hours (h) of culture under normal conditions, i.e., in an incubator at 37° C. with 5% CO2, the Neuro2a cells were treated for 48 h with 3β-fluoro-5α-hydroxy-6β-[2-(1H-imidazol-4-yl)ethylamino]-cholestane and 5α-hydroxy-6β-[2-(1H-imidazol-4-yl)ethylamino]cholestan-3β-ol at 100 nM, 1 μM and 10 μM. A control (CTL) is also performed using the previously described protocol without treatment with […]-5α-hydroxy-6β-[2-(1H-imidazol-4-yl)ethylamino]-cholestane and 5α-hydroxy-6β-[2-(1H-imidazol-4-yl)ethylamino]cholestan-3β-ol. The cell survival was quantified by means of a trypan blue test with automatic counting using the Biorad TC20 machine (TC20™ Automated Cell Counter). The trypan blue test is based on the integrity of cell membranes, which is disrupted in the dead cells. Trypan blue stains dead cells blue. The Biorad TC20 cell counter counts the proportion of blue and non-blue cells, and reports the percentage of cells. The results are represented in FIG. 1.

T1 sequence (Q15125 whole entry): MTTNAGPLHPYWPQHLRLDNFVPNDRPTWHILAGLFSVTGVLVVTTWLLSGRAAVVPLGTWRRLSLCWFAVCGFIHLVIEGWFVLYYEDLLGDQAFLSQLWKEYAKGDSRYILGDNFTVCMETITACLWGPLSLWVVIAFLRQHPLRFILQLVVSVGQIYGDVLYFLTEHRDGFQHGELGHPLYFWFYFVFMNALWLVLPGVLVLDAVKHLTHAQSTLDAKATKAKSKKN
T1 sequence (Q9UBM7 whole entry): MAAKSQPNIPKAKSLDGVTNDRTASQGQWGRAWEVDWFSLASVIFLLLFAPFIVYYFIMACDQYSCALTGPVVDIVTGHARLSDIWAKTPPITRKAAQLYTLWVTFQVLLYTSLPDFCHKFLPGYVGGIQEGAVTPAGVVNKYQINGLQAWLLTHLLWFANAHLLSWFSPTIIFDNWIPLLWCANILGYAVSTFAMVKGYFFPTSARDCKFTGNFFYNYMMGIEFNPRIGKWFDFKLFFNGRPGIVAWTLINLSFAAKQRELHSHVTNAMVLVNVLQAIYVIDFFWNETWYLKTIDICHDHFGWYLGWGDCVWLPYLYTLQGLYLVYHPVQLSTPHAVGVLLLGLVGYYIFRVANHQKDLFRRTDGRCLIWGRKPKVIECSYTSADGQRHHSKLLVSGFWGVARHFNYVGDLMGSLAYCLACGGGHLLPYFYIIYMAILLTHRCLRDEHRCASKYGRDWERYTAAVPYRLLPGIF

As usually defined, the IC50 is the concentration that inhibits the measured activity by half. High values mean weaker potency in that assay, low ones greater potency in that assay. For orientation: Cmax means the maximum level reached in the sampled fluid or tissue. Usually Tmax stands for the time at which the peak concentration occurs. Take `CC(C)CCC[C@@H](C)[C@H]1CC[C@H]2[C@@H]3C[C@@H](NCCc4c[nH]cn4)[C@@]4(O)C[C@@H](O)CC[C@]4(C)[C@H]3CC[C@]12C` [DX101, 5α-hydroxy-6β-[2-(1H-imidazol-4-yl)ethylamino]cholestan-3β-ol, reference compound]: in series [1], the “Mean LogIC50 (±SEM)” value was determined as 1.03 ± 0.06. This molecule yielded an IC50 in series [1] of 10.6 µM. Moreover, the clearance in series [2] (plasma, iv, 5 mg/kg, read-out: Clearance) turned out to be 11 mL/min/kg; in series [2] (po, 50 mg/kg), 412 mL/min/kg. Moreover, the half-life was 28 h in series [2] (plasma, iv, 5 mg/kg, read-out: T½ 2nd phase (converted)) and 39 h in series [2] (plasma, po, 50 mg/kg, read-out: T½ 2nd phase (converted)). Also, the bioavailability in series [2] (plasma, po 50 mg/kg versus iv 5 mg/kg, read-out: F %) was 3%. Further, the “ASC(t0-tlast)” value is 6205 in series [2] (iv, 5 mg/kg, plasma) and 1546 in series [2] (po, 50 mg/kg, plasma). Also, the Cmax in series [2] (iv, 5 mg/kg, plasma, read-out: Cmax) stood at 3310 ng/mL; in series [2] (po, 50 mg/kg, plasma, read-out: Cmax) it was 77 ng/mL. Further, the Vd turned out to be 29 L/kg in series [2] (plasma, iv, 5 mg/kg, iv, 5 mg/kg, read-out: Vd) and 19 L/kg in series [2] (plasma, iv, 5 mg/kg, iv, 5 mg/kg, read-out: Vss). Besides, in series [2] (po, 50 mg/kg, plasma, read-out: Tmax), the Tmax worked out at 4 h.

In the case of `CC(C)CCC[C@@H](C)[C@H]1CC[C@H]2[C@@H]3C[C@@H](NCCc4c[nH]cn4)[C@@]4(O)C[C@@H](F)CC[C@]4(C)[C@H]3CC[C@]12C` [DX111, 3β-fluoro-5α-hydroxy-6β-[2-(1H-imidazol-4-yl)ethylamino]cholestane], in series [1], the “Mean LogIC50 (±SEM)” value was 0.89 ± 0.04 and the IC50 worked out at 7.82 µM. The bioavailability in series [2] (in vivo) amounted to 10%. Besides, in series [2] (in vivo, iv, 5 mg/kg), the “ASC(t0-tlast)” value is 3516, the Cmax was found to be 2970 ng/mL, the clearance stood at 25 mL/min/kg and the half-life is 21 h. Also, the Vd in series [2] (in vivo, iv, 5 mg/kg, Vd) was found to be 43 L/kg. In series [2] (in vivo, iv, 5 mg/kg, Vss), the Vd came to 12 L/kg. Also, in series [2] (in vivo, po), the “bioavailability compared with DX101” value is “three-fold higher bioavailability”, the “clearance compared with DX101” value is listed as “halved” and the “maximum plasma concentration compared with DX101” value was “four times higher”. In series [2] (in vivo, po, 50 mg/kg), the “ASC(t0-tlast)” value stood at 3228, the Cmax stood at 309 ng/mL, the Tmax was 4 h and the clearance was 240 mL/min/kg. Besides, in series [2] (in vivo, po, 50 mg/kg), the half-life is 24 h. The “inhibition of ChEH activity” value in series [3] was “almost total inhibition”. In addition, the “percentage of cell survival relative to the control group” value in series [4] (100 nM) is “unchanged”. In series [4] (1 μM), the “percentage of cell survival relative to the control group” value worked out at 75%. The “percentage of cell survival relative to the control group” value in series [4] (10 μM) was 30%.
